# According to patent publication US6030823A, “D-aminoacylase” (Daicel Chemical Industries, Ltd., priority 1998, dated 2000):
# Where “and” joins values, the source holds several entries; their conditions need not be identical. Identical values can stand only once. Like-named read-outs stand apart in the source and are kept apart here.
# What was measured:
# [1] = test system: D-aminoacylase derived from Sebekia benihana IFO14309; test: Substrate specificity of the aminoacylase; assay type: biochemical; conditions: 20 mM substrate, 50 mM Tris-HCl pH 7.5, 30° C., 5 min
# Protocol: The substrate specificity of the aminoacylase was examined using N-acetyl-D-methionine, N-acetyl-D-alanine, N-acetyl-D-aspartic acid, N-acetyl-D-leucine, N-acetyl-D-phenylalanine, N-acetyl-D-tryptophan, N-acetyl-D-valine, N-acetyl-L-leucine, N-acetyl-L-methionine, and N-acetyl-L-valine as substrates. The enzyme activity was assayed as follows. A 0.050-ml aliquot of an enzyme solution was added to 0.950 ml of 20 mM N-acetyl-D(or L)-amino acid in 50 mM Tris-HCl buffer (pH 7.5) and incubated at 30° C. for 5 min. The reaction was then stopped by adding 0.50 ml of a TCA solution to the reaction mixture. The relative activity is shown in Table 5, taking the activity for N-acetyl-L-methionine as 100%.
# [2] = test system: Sebekia benihana IFO14309; test: Induction of D-aminoacylase, experiment 2 (seed culture, PY liquid medium, 0.10% inducer); assay type: cell-based; conditions: 20 mM N-acetyl-D-methionine, 30° C., 10 min
# Protocol: Second, a seed culture was prepared by incubating the strain in test tubes, each containing 5.0 ml of PY liquid medium for 71 hours. Then, 0.4 ml of the seed culture was inoculated with a 2-ml Komagome pipette into test tubes, each containing 8.0 ml of PY liquid medium supplemented with 0.10% DL-glutamine, 0.10% DL-histidine, 0.10% DL-isoleucine, 0.10% DL-phenylalanine, 0.10% proline, 0.10% DL-threonine, 0.10% DL-tryptophan, or 0.10% DL-valine as inducers, and cultivated for 74 hours with shaking (experiment 2).
# (§1) From the culture broth obtained in experiments 1, 2, and 3, the cells were collected by centrifugation at 8000 rpm (7000×g) for 20 min with a refrigerated centrifuge (Hitachi Koki Co., Ltd.). The collected cells were washed with 50 mM Tris-HCl buffer (pH 7.5), collected again by centrifugation using the same centrifuge, then stored at -20° C.
# (§2) The stored cells were suspended in 20 ml of 50 mM Tris-HCl buffer (pH 7.5) and were disrupted by sonication at 200 W for 15 min. The lysate was centrifuged at 15,000 rpm for 30 min with the above centrifuge, and the supernatant was obtained as a crude enzyme solution.
# (§3) The enzymatic reaction was performed in 1.0 ml of a reaction system containing 20 mM N-acetyl-D-methionine, 50 mM Tris-HCl buffer (pH 7.5), 1 mM CoCl2, and 100 μl of the enzyme solution at 30° C. for 20 min (experiment 1), 10 min (experiment 2), and 5 min (experiment 3). The reaction was stopped by adding a TCA solution.
# [3] = test system: D-aminoacylase derived from Sebekia benihana IFO14309; assay type: biochemical
# Protocol: (§4) The enzymatic reaction was performed in the same manner as in (1) except that the metal salts and enzyme inhibitors listed in Tables 10 and 11 (1 mM or 10 mM) were added to the reaction mixture.
# [4] = test system: D-aminoacylase derived from Sebekia benihana IFO14309; test: Influences of inhibitors on the activity of the enzyme; assay type: biochemical
# Protocol: as §4
# [5] = test system: Sebekia benihana IFO14309; test: Induction of D-aminoacylase, experiment 3 (seed culture, 231 liquid medium, 0.05% inducer); assay type: cell-based; conditions: for Activity / Specific activity: experiment 3, 20 mM N-acetyl-D-methionine, 30° C., 5 min; for Induction of the enzyme (in words): used as inducers (Table 3)
# Protocol: Third, a seed culture was prepared by incubating the strain in test tubes, each containing 5.0 ml of PY liquid medium for 51 hours with shaking. The seed culture (0.4 ml) was then inoculated with a 2-ml Komagome pipette into test tubes, each containing 8.0 ml of 231 liquid medium (1.0% maltose; 0.2% N.Z.Amine, Type A; 0.1% yeast extract; 0.1% meat extract; pH 7.3) supplemented with 0.05% D-phenylalanine, 0.05% D-tryptophan, 0.05% D-valine, 0.05% L-phenylalanine, 0.05% L-tryptophan, or 0.05% L-valine as inducers, and cultivated for 48 hours with shaking (experiment 3).
# as §1, §2, §3
# [6] = test system: Sebekia benihana IFO14309; test: Induction of D-aminoacylase, experiment 1 (PY liquid medium, 0.10% inducer); assay type: cell-based; conditions: 20 mM N-acetyl-D-methionine, 30° C., 20 min
# Protocol: First, Sebekia benihana IFO14309 was cultured with shaking for 74 hours in test tubes, each containing 8.0 ml of PY liquid medium (0.2% glycerol, 2.0% yeast extract, 2.0% polypeptone, pH 7.3) supplemented with 0.10% DL-leucine, 0.10% N-acetyl-DL-leucine, 0.10% DL-methionine, 0.10% N-acetyl-DL-methionine, DL-valine, or 0.10% N-acetyl-DL-valine as inducers (experiment 1).
# as §1, §2, §3
# [7] = column 1 mM, PCMB was used at 0.01 mM
# [8] = column 10 mM, PCMB was used at 0.1 mM
structure (smiles),measurement,setting,value
"CC(=O)N[C@H](Cc1ccccc1)C(=O)O [N-Ac-D-Phe, N-acetyl-D-phenylalanine]",Relative activity,[1],100%
"C[C@@H](O)[C@H](N)C(=O)O (racemic) [DL-Thr, DL-threonine]",Activity,[2],0.0163 U/ml of broth
same,Specific activity,[2],0.00587 U/mg
[Cl][Fe][Cl] [FeCl2],Effect of metal ions on the enzyme (in words),[3],inhibited
same,D-Met,[3]; metal salt 1 mM,0.24 mM
same,Residual activity,[3]; metal salt 1 mM,20%
same,D-Met,[3]; metal salt 10 mM,0.035 mM
same,Residual activity,[3]; metal salt 10 mM,2.9%
[F-].[Na+] [NaF],D-Met,[4]; inhibitor 1 mM,1.6 mM
same,Residual activity,[4]; inhibitor 1 mM,100%
same,D-Met,[4]; inhibitor 10 mM,1.4 mM
same,Residual activity,[4]; inhibitor 10 mM,88%
"NC(Cc1c[nH]c2ccccc12)C(=O)O (racemic) [DL-Trp, DL-tryptophan]",Activity,[2],0.312 U/ml of broth
same,Specific activity,[2],0.119 U/mg
"CC(=O)N[C@@H](CC(C)C)C(=O)O [N-Ac-L-Leu, N-acetyl-L-leucine]",Relative activity,[1],0%
"N[C@@H](Cc1c[nH]c2ccccc12)C(=O)O [L-Trp, L-tryptophan]",Activity,[5],0.0243 U/ml of broth
same,Specific activity,[5],0.0134 U/mg
"CC(=O)N[C@H](Cc1c[nH]c2ccccc12)C(=O)O [N-Ac-D-Trp, N-acetyl-D-tryptophan]",Relative activity,[1],64%
"CC(=O)NC(CC(C)C)C(=O)O (racemic) [N-Ac-DL-Leucine, N-acetyl-DL-leucine]",Activity,[6],0.158 U/ml of broth
same,Specific activity,[6],0.0545 U/mg
[Cl][Cu][Cl] [CuCl2],Effect of metal ions on the enzyme (in words),[3],inhibited
same,D-Met,[3]; metal salt 1 mM,0.13 mM
same,Residual activity,[3]; metal salt 1 mM,11%
same,D-Met,[3]; metal salt 10 mM,0 mM
same,Residual activity,[3]; metal salt 10 mM,0%
[Ca+2].[Cl-].[Cl-] [CaCl2],D-Met,[3]; metal salt 1 mM,1.3 mM
same,Residual activity,[3]; metal salt 1 mM,108%
same,D-Met,[3]; metal salt 10 mM,1.1 mM
same,Residual activity,[3]; metal salt 10 mM,92%
OC(CS)C(O)CS (stereo not shown) [DTT],D-Met,[4]; inhibitor 1 mM,0.13 mM
same,Residual activity,[4]; inhibitor 1 mM,8.1%
same,D-Met,[4]; inhibitor 10 mM,0.055 mM
same,Residual activity,[4]; inhibitor 10 mM,3.4%
"CC(=O)N[C@H](C(=O)O)C(C)C [N-Ac-L-Val, N-acetyl-L-valine]",Relative activity,[1],0%
"O=C(O)[C@@H]1CCCN1 (racemic) [DL-Pro, proline]",Activity,[2],0.00867 U/ml of broth
same,Specific activity,[2],0.00286 U/mg
[Cl-].[Na+] [NaCl],D-Met,[3],1.3 mM and 1.1 mM
same,Residual activity,[3],108% and 92%
[Cl][Mn][Cl] [MnCl2],D-Met,[3]; metal salt 1 mM,1.3 mM
same,Residual activity,[3]; metal salt 1 mM,108%
same,D-Met,[3]; metal salt 10 mM,0.73 mM
same,Residual activity,[3]; metal salt 10 mM,61%
[Cl-].[Cl-].[Zn+2] [ZnCl2],Effect of metal ions on the enzyme (in words),[3],inhibited
same,D-Met,[3]; metal salt 1 mM,0.50 mM
same,Residual activity,[3]; metal salt 1 mM,42%
same,D-Met,[3]; metal salt 10 mM,0 mM
same,Residual activity,[3]; metal salt 10 mM,0%
"CC(C)CC(N)C(=O)O (racemic) [DL-Leucine, DL-leucine]",Activity,[6],0.315 U/ml of broth
same,Specific activity,[6],0.0967 U/mg
"CC[C@H](C)[C@H](N)C(=O)O (racemic) [DL-Ile, DL-isoleucine]",Activity,[2],0.214 U/ml of broth
same,Specific activity,[2],0.0799 U/mg
[Cl][Ni][Cl] [NiCl2],Effect of metal ions on the enzyme (in words),[3],inhibited
same,D-Met,[3]; metal salt 1 mM,0.53 mM
same,Residual activity,[3]; metal salt 1 mM,44%
same,D-Met,[3]; metal salt 10 mM,0.035 mM
same,Residual activity,[3]; metal salt 10 mM,2.9%
"NC(Cc1c[nH]cn1)C(=O)O (racemic) [DL-His, DL-histidine]",Activity,[2],0.0144 U/ml of broth
same,Specific activity,[2],0.0064 U/mg
"O=C(O)CI [ICH2 COOH, iodoacetic acid]",Effect of inhibitors on the enzyme (in words),[4],inhibited
[Cl-].[Cl-].[Co+2] [CoCl2],Effect of metal ions on the enzyme (in words),[3],inhibited
same,D-Met,[3]; metal salt 1 mM,0.65 mM
same,Residual activity,[3]; metal salt 1 mM,54%
same,D-Met,[3]; metal salt 10 mM,0.11 mM
same,Residual activity,[3]; metal salt 10 mM,9.2%
[Cl-].[K+] [KCl],D-Met,[3]; metal salt 1 mM,1.2 mM
same,Residual activity,[3]; metal salt 1 mM,100%
same,D-Met,[3]; metal salt 10 mM,1.1 mM
same,Residual activity,[3]; metal salt 10 mM,92%
"N[C@@H](Cc1ccccc1)C(=O)O [L-Phe, L-phenylalanine]",Activity,[5],0.00973 U/ml of broth
same,Specific activity,[5],0.0064 U/mg
"CC(C)C(N)C(=O)O (racemic) [DL-Valine, DL-valine]",Activity,[6],0.429 U/ml of broth
same,Specific activity,[6],0.133 U/mg
same,Activity,[2],0.239 U/ml of broth
same,Specific activity,[2],0.0920 U/mg
"CC(C)[C@H](N)C(=O)O [L-Val, L-valine]",Activity,[5],0.0265 U/ml of broth
same,Specific activity,[5],0.0161 U/mg
"N[C@H](Cc1c[nH]c2ccccc12)C(=O)O [D-Trp, D-tryptophan]",Activity,[5],0.913 U/ml of broth
same,Specific activity,[5],0.537 U/mg
same,Induction of the enzyme (in words),[5],induced well
"O=C(O)c1cc[c]([Hg][Cl])cc1 [PCMB, p-chloromercuribenzoic acid]",Effect of inhibitors on the enzyme (in words),[4],inhibited
same,D-Met,[4]; [7],1.8 mM
same,Residual activity,[4]; [7],112%
same,D-Met,[4]; [8],1.6 mM
same,Residual activity,[4]; [8],100%
"c1ccc(-c2ccccn2)nc1 [2,2'-Bipyridyl]",D-Met,[4]; inhibitor 1 mM,1.6 mM
same,Residual activity,[4]; inhibitor 1 mM,100%
same,D-Met,[4]; inhibitor 10 mM,1.4 mM
same,Residual activity,[4]; inhibitor 10 mM,88%
CCN1C(=O)C=CC1=O [N-ethyl-maleimide],D-Met,[4]; inhibitor 1 mM,1.7 mM
same,Residual activity,[4]; inhibitor 1 mM,106%
same,D-Met,[4]; inhibitor 10 mM,1.1 mM
same,Residual activity,[4]; inhibitor 10 mM,69%
[Cl][Hg][Cl] [HgCl2],Effect of metal ions on the enzyme (in words),[3],inhibited
same,D-Met,[3]; metal salt 1 mM,0.38 mM
same,Residual activity,[3]; metal salt 1 mM,32%
same,D-Met,[3]; metal salt 10 mM,0 mM
same,Residual activity,[3]; metal salt 10 mM,0%
"N[C@H](Cc1ccccc1)C(=O)O [D-Phe, D-phenylalanine]",Activity,[5],0.479 U/ml of broth
same,Specific activity,[5],0.303 U/mg
same,Induction of the enzyme (in words),[5],induced well
[Cl-].[Cl-].[Mg+2] [MgCl2],D-Met,[3]; metal salt 1 mM,1.3 mM
same,Residual activity,[3]; metal salt 1 mM,108%
same,D-Met,[3]; metal salt 10 mM,1.2 mM
same,Residual activity,[3]; metal salt 10 mM,100%
"NC(Cc1ccccc1)C(=O)O (racemic) [DL-Phe, DL-phenylalanine]",Activity,[2],0.190 U/ml of broth
same,Specific activity,[2],0.0701 U/mg
O=C(O)CN(CCN(CC(=O)O)CC(=O)O)CC(=O)O [EDTA],D-Met,[4],1.6 mM
same,Effect of inhibitors on the enzyme (in words),[4],inhibited
same,Residual activity,[4],100%
O=C(O)CN(CCN(CC(=O)O)CC(=O)O)CC(=O)O [EDTA · 2Na],D-Met,[3],1.2 mM and 1.3 mM
same,Residual activity,[3],108%
"CC(C)[C@@H](N)C(=O)O [D-Val, D-valine]",Activity,[5],1.27 U/ml of broth
same,Specific activity,[5],0.780 U/mg
same,Induction of the enzyme (in words),[5],induced well
[Ba+2].[Cl-].[Cl-] [BaCl2],D-Met,[3]; metal salt 1 mM,1.2 mM
same,Residual activity,[3]; metal salt 1 mM,100%
same,D-Met,[3]; metal salt 10 mM,1.1 mM
same,Residual activity,[3]; metal salt 10 mM,92%
"CC(=O)NC(C(=O)O)C(C)C (racemic) [N-Ac-DL-Valine, N-acetyl-DL-valine]",Activity,[6],0.114 U/ml of broth
same,Specific activity,[6],0.0341 U/mg
"CSCCC(NC(C)=O)C(=O)O (racemic) [N-Ac-DL-Methionine, N-acetyl-DL-methionine]",Activity,[6],0.0713 U/ml of broth
same,Specific activity,[6],0.0186 U/mg
"CSCCC(N)C(=O)O (racemic) [DL-Methionine, DL-methionine]",Activity,[6],0.177 U/ml of broth
same,Specific activity,[6],0.0475 U/mg
